Source: ChEMBL document CHEMBL5674860, “Optimized Dual-Glo Assay to identify co-culture-induced drug vulnerabilities in 3D CRC models” (2024)

Columns and labels:
Assay type in all cases: functional, Homo sapiens
Design in all cases: dose or concentration left out as unconfirmed
Colon cancer organoid [1] = test: Optimized Dual-Glo assay to identify co-culture induced drug vulnerabilities using donated chemical probes and chemogenomics kinase set in O14 CRC organoid and F14 CAF mono and co-culture. […] Cell viability is reported both mono and co-culture models.
Colon cancer organoid [2] = test: Optimized Dual-Glo assay to identify co-culture induced drug vulnerabilities using donated chemical probes and chemogenomics kinase set in O06 CRC organoid and F06 CAF mono and co-culture. […] Cell viability is reported both mono and co-culture models.
Colon cancer organoid [3] = test: Optimized Dual-Glo assay to identify co-culture induced drug vulnerabilities using donated chemical probes and chemogenomics kinase set in O20 CRC organoid and F20 CAF mono and co-culture. […] Cell viability is reported both mono and co-culture models.
[4] = Culture type Co-Culture, Transduced with Lucferase2-P2A-EGFP lentivirus
[5] = Culture type Co-Culture, Transduced with Renilla-dsRed lentivirus
[6] = Culture type Mono-Culture, Transduced with Lucferase2-P2A-EGFP lentivirus
[7] = Culture type Mono-Culture, Transduced with Renilla-dsRed lentivirus

SMILES | Cell Viability (Colon cancer organoid [1]; [4]) | Cell Viability (Colon cancer organoid [1]; [5]) | Cell Viability (Colon cancer organoid [1]; [6]) | Cell Viability (Colon cancer organoid [1]; [7]) | Cell Viability (Colon cancer organoid [2]; [4]) | Cell Viability (Colon cancer organoid [2]; [5]) | Cell Viability (Colon cancer organoid [2]; [6]) | Cell Viability (Colon cancer organoid [2]; [7]) | Cell Viability (Colon cancer organoid [3]; [4]) | Cell Viability (Colon cancer organoid [3]; [5]) | Cell Viability (Colon cancer organoid [3]; [6]) | Cell Viability (Colon cancer organoid [3]; [7])
COc1ccc(Cn2ccc3ccc(C(=O)NO)cc32)cc1 | 71.3405% | 118.85% | 119.497% | 102.466% | 111.578% | 129.424% | 126.919% | 118.855% | 176.611% | 111.53% | 111.23% | 102.771%
CCCOc1ccn2c(C(C)=O)cc(-c3cccc(OC)c3)c2c1 | 84.3946% | 120.115% | 124.987% | 98.1469% | 110.241% | 146.669% | 131.845% | 119.651% | 76.4747% | 110.044% | 113.084% | 103.998%
CN1C[C@H](Nc2cnn(C)c(=O)c2Br)C[C@H](c2ccccc2)C1 | 72.8555% | 143.992% | 98.7271% | 111.977% | 52.3497% | 181.327% | 101.698% | 109.538% | 159.897% | 106.068% | 104.311% | 120.493%
CO[C@H]1CNC[C@@H](OCC2CCC(F)(F)CC2)[C@@H]1Nc1ncc(-c2cncc(C)c2)c2cc(C)c(=O)[nH]c12 | 95.7966% | 88.7201% | 127.619% | 100.555% | 95.0954% | 138.476% | 98.6849% | 128.396% | 171.391% | 122.949% | 125.457% | 102.001%
Cl.O=C(O)c1cc(-c2ccc(C3CCNCC3)cc2)c2ccc(-c3ccc(C(F)(F)F)cc3)cc2c1 | 74.9682% | 122.124% | 85.098% | 99.5367% | 107.895% | 117.47% | 95.8495% | 93.2112% | 105.826% | 101.384% | 71.4178% | 87.2658%
O=C(NCc1ccccc1)c1ccc(S(=O)(=O)NCc2ccccc2)cc1 | 77.1762% | 97.8485% | 125.216% | 99.6349% | 120.089% | 107.944% | 199.391% | 148.571% | 89.1581% | 96.8328% | 97.877% | 137.118%
CCOC(=O)CCNc1cc(N2CCc3ccccc3CC2)nc(-c2cccnc2)n1 | 62.9469% | 109.109% | 99.8423% | 94.8955% | 130.773% | 124.082% | 90.274% | 111.34% | 102.18% | 131.422% | 61.9891% | 99.1525%
C[C@H]1CCCN1Cc1nc2cc(NC(=O)c3ccc4cnccc4c3)ccc2[nH]1 | 60.7566% | 146.013% | 100.332% | 105.964% | 122.515% | 131.721% | 188.522% | 107.295% | 98.572% | 149.477% | 83.1729% | 94.0651%
Cc1cc(C)cc([C@@H]2c3cc(C)ccc3NC(=O)CN2C(=O)c2ccc(Br)s2)c1 | 88.8372% | 581.73% | 126.733% | 467.801% | 107.168% | 464.523% | 138.593% | 545.831% | 135.921% | 541.943% | 109.076% | 515.86%
Cc1cc(C)cc([C@H]2c3cc(C)ccc3NC(=O)CN2C(=O)c2ccc(Br)s2)c1 | 84.3524% | 110.086% | 124.101% | 91.0337% | 94.0417% | 115.465% | 159.24% | 104.104% | 134.503% | 98.7461% | 124.059% | 79.4319%
CC(=O)c1cc(-c2ccccc2OCC2CC2)c2ncccn12 | 80.3991% | 93.1948% | 108.194% | 100.736% | 107.249% | 181.775% | 93.2808% | 95.3402% | 90.8424% | 121.201% | 99.1369% | 90.8457%
Cc1cc(CN)cc(C)c1-c1ncn(C)c1-c1cncn1C | 82.5441% | 115.965% | 119.104% | 86.3829% | 121.461% | 141.638% | 159.088% | 144.43% | 127.582% | 117.48% | 113.288% | 98.6435%
CC(C)Oc1ccc(-c2c[nH]cc2CN(C)CCO)cc1 | 119.367% | 107.888% | 90.5544% | 99.1586% | 112.392% | 114.959% | 84.6605% | 116.102% | 114.035% | 121.653% | 114.538% | 100.305%
Cl.Cn1cncc1[C@](O)(COc1ccc(C#N)cc1-c1ccc(OC(F)(F)F)cc1)c1ccc(C#N)cc1 | 26.9606% | 99.4366% | 53.0011% | 61.9663% | 31.9269% | 197.169% | 11.7395% | 58.9843% | 15.3114% | 150.357% | 17.164% | 65.8997%
